Measurements from patent US11793822B2, “Uses of Pulsatilla Chinensis extract in preparing drug for treating viral and/or bacterial diseases” (SICHUAN INLU WEITE PHARMACEUTICAL TECHNOLOGY CO., LTD., priority 2018, dated 2023).

Key:
[1] = set-up: species or system dairy cows; settings: in vivo
Source text: In addition, during the treatment of dairy cow mastitis, randomly selected the tested Pulsatilla Saponin B4 injection and entrusted the Sichuan Provincial Veterinary Drug Inspection Institute to conduct more than 200 antibiotic tests, and no antibiotic component was detected. […] Pulsatilla Saponin B4 has little effect on the immunoglobulin and inflammatory factors in the cow milk, thus can ensure the stability of the milk composition. In addition, since there is no residue, it will not affect the quality of fresh milk in dairy farms.

[2] = test system: persistent clinical mastitis; experiment: Treatment of persistent clinical mastitis (Test Example 3); format: in vivo, cows; settings: 60 mL intramuscular injection once a day, after 3 administrations
Experimental: Pulsatilla Saponin B4 injection prepared by the preparation method of Example 3 at a concentration of 50 mg/mL;
The test selected 8 existing cows suffering from clinical mastitis in the dairy farm of Shijiazhuang Tianquan Dairy Cows Co., Ltd. These 8 cows have been treated for about a month but have not been cured (2 of them were close to dry, i.e., almost no milk was produced). These 8 cows have been treated by farm veterinarians, the treatment drugs and methods include udder infusing Cefquinome Sulfate Intramammary Infusion, intravenous injecting cephalosporins injection, and gavage with Gongying San ( ? ), etc.
To study the effect of Pulsatilla Saponin B4 injection on persistent clinical mastitis and the effect of Pulsatilla Saponin B4 injection on latent mastitis.
In the test, the Pulsatilla Saponin B4 injection prepared by the preparation method of Example 3 was used to treat 6 cows with persistent clinical mastitis and 2 cows with persistent clinical mastitis and close to dry. No matter how many udder areas were inflamed, intramuscular injection (60 mL) was taken once a day.

## C=C(C)C1CC[C@]2(C(=O)O[C@@H]3O[C@H](CO[C@@H]4O[C@H](CO)[C@@H](O[C@@H]5O[C@@H](C)[C@H](O)[C@@H](O)[C@H]5O)[C@H](O)[C@H]4O)[C@@H](O)[C@H](O)C3O)CC[C@]3(C)[C@H](CC[C@@H]4[C@@]5(C)CC[C@H](O[C@@H]6OC[C@H](O)[C@H](O)[C@H]6O[C@@H]6O[C@@H](C)[C@H](O)[C@@H](O)[C@H]6O)C(C)(CO)[C@@H]5CC[C@]43C)[C@H]12 (stereo partly drawn) [Pulsatilla Saponin B4]
[1]
  Effect on the immunoglobulin and inflammatory factors in the cow milk: little effect
[2]; 2 cows close to dry
  Treatment result of cows with persistent clinical mastitis close to dry: not effective
[2]; 6 cows treated about a month but not cured
  Treatment result of cows with persistent clinical mastitis: four cows were cured, one cow improved significantly, and one cow showed no significant effect
